For 9 cell lines, relative viability results are on record in the supplement of paper PMC10307832.

What all share (test): relative viability (nuclei count vs DMSO), 5 days (fraction); higher = more cells survive
Compound in the assay “EHT 1864 + Luminespib”: C1COCCN1CC2=CC(=O)C(=CO2)OCCCCCSC3=C4C=CC(=CC4=NC=C3)C(F)(F)F [EHT 1864] + CCNC(=O)c1noc(-c2cc(C(C)C)c(O)cc2O)c1-c1ccc(CN2CCOCC2)cc1 [Luminespib] (partner 0.01 µM)
In short, it runs like this: (§1)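 Dosing by pin tool came one day after lung cancer cell lines were seeded in 1536-well plates, using either one drug or a fixed anchor-drug dose plus five library-drug doses (not always all listed) in √10 steps. After 5 days, nuclei were counted on 4× images. Relative viability is treated-well nuclei count divided by vehicle-well nuclei count, and values are medians of duplicate plates.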

Compound in the assay “EHT 1864 + Foretinib”: C1COCCN1CC2=CC(=O)C(=CO2)OCCCCCSC3=C4C=CC(=CC4=NC=C3)C(F)(F)F [EHT 1864] + COc1cc2c(Oc3ccc(NC(=O)C4(C(=O)Nc5ccc(F)cc5)CC4)cc3F)ccnc2cc1OCCCN1CCOCC1 [Foretinib] (partner 0.25 µM)
A digest of the protocol: as §1

Compound in the assay “EHT 1864 + Dasatinib”: C1COCCN1CC2=CC(=O)C(=CO2)OCCCCCSC3=C4C=CC(=CC4=NC=C3)C(F)(F)F [EHT 1864] + Cc1nc(Nc2ncc(C(=O)Nc3c(C)cccc3Cl)s2)cc(N2CCN(CCO)CC2)n1 [Dasatinib] (partner 0.075 µM)
In short, it runs like this: as §1

Compound in the assay “EHT 1864 + Decitabine”: C1COCCN1CC2=CC(=O)C(=CO2)OCCCCCSC3=C4C=CC(=CC4=NC=C3)C(F)(F)F [EHT 1864] + Nc1ncn([C@H]2C[C@H](O)[C@@H](CO)O2)c(=O)n1 [Decitabine] (partner 2 µM)
In short, it runs like this:
as §1

Consider 201T, for which the relative viability stood at 0.994 with EHT 1864 + Luminespib (first compound 0.04 µM); 1.06 with EHT 1864 + Luminespib (first compound 0.1265 µM); 1.01 with EHT 1864 + Luminespib (first compound 0.4 µM); 0.891 with EHT 1864 + Luminespib (first compound 1.265 µM); 0.946 with EHT 1864 + Luminespib (first compound 4 µM); 0.964 in the assay with EHT 1864 + Foretinib (first compound 0.04 µM). Further, the relative viability in the assay with EHT 1864 + Foretinib (first compound 0.1265 µM) stood at 1.05; with EHT 1864 + Foretinib (first compound 0.4 µM), 1.16; with EHT 1864 + Foretinib (first compound 1.265 µM) it was 0.99; with EHT 1864 + Foretinib (first compound 4 µM), 1.08; with EHT 1864 + Dasatinib (first compound 0.04 µM) it was 0.563; in the assay with EHT 1864 + Dasatinib (first compound 0.1265 µM), 0.587. In addition, the relative viability was 0.589 with EHT 1864 + Dasatinib (first compound 0.4 µM); 0.473 with EHT 1864 + Dasatinib (first compound 1.265 µM); 0.528 in the assay with EHT 1864 + Dasatinib (first compound 4 µM); 0.86 with EHT 1864 + Decitabine (first compound 0.04 µM); 0.874 with EHT 1864 + Decitabine (first compound 0.1265 µM); 0.863 with EHT 1864 + Decitabine (first compound 0.4 µM). In addition, the relative viability with EHT 1864 + Decitabine (first compound 1.265 µM) is 0.8; with EHT 1864 + Decitabine (first compound 4 µM) it was 0.778.

As for A549, the relative viability with EHT 1864 + Foretinib (first compound 0.04 µM) is 0.995; with EHT 1864 + Foretinib (first compound 0.1265 µM), 0.986; with EHT 1864 + Foretinib (first compound 0.4 µM) it was 0.978; in the assay with EHT 1864 + Foretinib (first compound 1.265 µM), 0.815; in the assay with EHT 1864 + Foretinib (first compound 4 µM), 0.714; with EHT 1864 + Decitabine (first compound 0.04 µM), 0.263. Moreover, the relative viability with EHT 1864 + Decitabine (first compound 0.1265 µM) stood at 0.213; in the assay with EHT 1864 + Decitabine (first compound 0.4 µM), 0.257; with EHT 1864 + Decitabine (first compound 1.265 µM), 0.284; in the assay with EHT 1864 + Decitabine (first compound 4 µM) it was 0.323.

Regarding A-427, the relative viability with EHT 1864 + Luminespib (first compound 0.04 µM) was 0.876; with EHT 1864 + Luminespib (first compound 0.1265 µM), 0.952; with EHT 1864 + Luminespib (first compound 0.4 µM), 0.899; with EHT 1864 + Luminespib (first compound 1.265 µM) it was 0.942; with EHT 1864 + Luminespib (first compound 4 µM), 0.906; with EHT 1864 + Foretinib (first compound 0.04 µM), 1.03. Also, the relative viability in the assay with EHT 1864 + Foretinib (first compound 0.1265 µM) is 0.942; in the assay with EHT 1864 + Foretinib (first compound 0.4 µM) it was 0.986; with EHT 1864 + Foretinib (first compound 1.265 µM) it was 1.05; with EHT 1864 + Foretinib (first compound 4 µM), 0.968; with EHT 1864 + Dasatinib (first compound 0.04 µM), 0.643; in the assay with EHT 1864 + Dasatinib (first compound 0.1265 µM), 0.655. Further, the relative viability amounted to 0.613 in the assay with EHT 1864 + Dasatinib (first compound 0.4 µM); 0.705 in the assay with EHT 1864 + Dasatinib (first compound 1.265 µM); 0.623 in the assay with EHT 1864 + Dasatinib (first compound 4 µM); 0.566 in the assay with EHT 1864 + Decitabine (first compound 0.04 µM); 0.572 with EHT 1864 + Decitabine (first compound 0.1265 µM); 0.548 with EHT 1864 + Decitabine (first compound 0.4 µM). The results for the relative viability in the assay with EHT 1864 + Decitabine (first compound 1.265 µM) and in the assay with EHT 1864 + Decitabine (first compound 4 µM) were 0.564 and 0.59, respectively.

Consider ABC-1, for which the relative viability with EHT 1864 + Luminespib (first compound 0.04 µM) is 0.816; with EHT 1864 + Luminespib (first compound 0.4 µM), 0.48; with EHT 1864 + Luminespib (first compound 1.265 µM) it was 0.387; in the assay with EHT 1864 + Luminespib (first compound 4 µM), 0.422; with EHT 1864 + Foretinib (first compound 0.04 µM), 1.22; with EHT 1864 + Foretinib (first compound 0.1265 µM) it was 1.06. Besides, the relative viability in the assay with EHT 1864 + Foretinib (first compound 0.4 µM) was 1.03; in the assay with EHT 1864 + Foretinib (first compound 1.265 µM) it was 0.954; in the assay with EHT 1864 + Foretinib (first compound 4 µM) it was 0.834; with EHT 1864 + Dasatinib (first compound 0.04 µM), 0.504; with EHT 1864 + Dasatinib (first compound 0.4 µM), 0.631; with EHT 1864 + Dasatinib (first compound 1.265 µM), 0.488. Besides, the relative viability was found to be 0.439 with EHT 1864 + Dasatinib (first compound 4 µM); 1.35 in the assay with EHT 1864 + Decitabine (first compound 0.04 µM); 0.91 in the assay with EHT 1864 + Decitabine (first compound 0.1265 µM); 1.15 with EHT 1864 + Decitabine (first compound 0.4 µM); 0.881 with EHT 1864 + Decitabine (first compound 1.265 µM); 0.901 with EHT 1864 + Decitabine (first compound 4 µM).

Regarding BEN, the relative viability in the assay with EHT 1864 + Luminespib (first compound 0.04 µM) was 0.264; with EHT 1864 + Luminespib (first compound 0.1265 µM), 0.17; with EHT 1864 + Luminespib (first compound 0.4 µM), 0.527; in the assay with EHT 1864 + Luminespib (first compound 1.265 µM) it was 0.333; in the assay with EHT 1864 + Luminespib (first compound 4 µM) it was 0.533; with EHT 1864 + Foretinib (first compound 0.04 µM) it was 0.702. In addition, the relative viability worked out at 0.585 with EHT 1864 + Foretinib (first compound 0.1265 µM); 0.827 in the assay with EHT 1864 + Foretinib (first compound 0.4 µM); 0.484 in the assay with EHT 1864 + Foretinib (first compound 1.265 µM); 0.771 in the assay with EHT 1864 + Foretinib (first compound 4 µM); 0.384 with EHT 1864 + Dasatinib (first compound 0.04 µM); 0.279 with EHT 1864 + Dasatinib (first compound 0.1265 µM). The relative viability came to 0.377 in the assay with EHT 1864 + Dasatinib (first compound 0.4 µM); 0.308 with EHT 1864 + Dasatinib (first compound 1.265 µM); 0.36 with EHT 1864 + Dasatinib (first compound 4 µM); 0.775 with EHT 1864 + Decitabine (first compound 0.04 µM); 0.727 with EHT 1864 + Decitabine (first compound 0.1265 µM); 0.767 with EHT 1864 + Decitabine (first compound 0.4 µM). The figures for the relative viability with EHT 1864 + Decitabine (first compound 1.265 µM) and with EHT 1864 + Decitabine (first compound 4 µM) were 0.764 and 0.702, respectively.

With CAL-12T, the relative viability in the assay with EHT 1864 + Luminespib (first compound 0.04 µM) came to 0.563; with EHT 1864 + Luminespib (first compound 0.1265 µM) it was 0.178; with EHT 1864 + Luminespib (first compound 0.4 µM), 0.366; in the assay with EHT 1864 + Luminespib (first compound 1.265 µM), 0.373; in the assay with EHT 1864 + Luminespib (first compound 4 µM), 0.46; with EHT 1864 + Foretinib (first compound 0.04 µM), 1. Besides, the relative viability is 1.05 in the assay with EHT 1864 + Foretinib (first compound 0.1265 µM); 1 with EHT 1864 + Foretinib (first compound 0.4 µM); 0.852 with EHT 1864 + Foretinib (first compound 1.265 µM); 0.908 in the assay with EHT 1864 + Foretinib (first compound 4 µM); 0.54 with EHT 1864 + Dasatinib (first compound 0.04 µM); 0.38 with EHT 1864 + Dasatinib (first compound 0.1265 µM). In addition, the values for the relative viability with EHT 1864 + Dasatinib (first compound 0.4 µM), with EHT 1864 + Dasatinib (first compound 1.265 µM) and with EHT 1864 + Dasatinib (first compound 4 µM) were 0.409, 0.353 and 0.483, respectively.

Regarding COR-L23, the relative viability in the assay with EHT 1864 + Luminespib (first compound 0.04 µM) was 0.699; with EHT 1864 + Luminespib (first compound 0.1265 µM), 0.528; with EHT 1864 + Luminespib (first compound 0.4 µM), 0.613; in the assay with EHT 1864 + Luminespib (first compound 1.265 µM), 0.642; in the assay with EHT 1864 + Luminespib (first compound 4 µM), 0.494; with EHT 1864 + Foretinib (first compound 0.04 µM), 1.01. The relative viability with EHT 1864 + Foretinib (first compound 0.1265 µM) was found to be 0.922; in the assay with EHT 1864 + Foretinib (first compound 0.4 µM), 1; with EHT 1864 + Foretinib (first compound 1.265 µM), 0.948; with EHT 1864 + Foretinib (first compound 4 µM), 0.86; in the assay with EHT 1864 + Dasatinib (first compound 0.04 µM), 0.492; in the assay with EHT 1864 + Dasatinib (first compound 0.1265 µM), 0.396. The relative viability was 0.467 with EHT 1864 + Dasatinib (first compound 0.4 µM); 0.485 with EHT 1864 + Dasatinib (first compound 1.265 µM); 0.439 with EHT 1864 + Dasatinib (first compound 4 µM); 0.523 in the assay with EHT 1864 + Decitabine (first compound 0.04 µM); 0.343 in the assay with EHT 1864 + Decitabine (first compound 0.1265 µM); 0.473 with EHT 1864 + Decitabine (first compound 0.4 µM). Further, the relative viability with EHT 1864 + Decitabine (first compound 1.265 µM) was determined as 0.475; with EHT 1864 + Decitabine (first compound 4 µM), 0.307.

In the case of COR-L 105, the relative viability in the assay with EHT 1864 + Luminespib (first compound 0.04 µM) amounted to 0.748; with EHT 1864 + Luminespib (first compound 0.1265 µM), 0.751; with EHT 1864 + Luminespib (first compound 0.4 µM), 0.808; in the assay with EHT 1864 + Luminespib (first compound 1.265 µM), 0.628; with EHT 1864 + Luminespib (first compound 4 µM) it was 0.686; with EHT 1864 + Foretinib (first compound 0.04 µM), 0.959. Also, the relative viability with EHT 1864 + Foretinib (first compound 0.1265 µM) is 1.02; with EHT 1864 + Foretinib (first compound 0.4 µM) it was 1.25; in the assay with EHT 1864 + Foretinib (first compound 1.265 µM), 1.19; with EHT 1864 + Foretinib (first compound 4 µM), 0.917; with EHT 1864 + Dasatinib (first compound 0.04 µM), 0.415; with EHT 1864 + Dasatinib (first compound 0.1265 µM), 0.314. Moreover, the relative viability in the assay with EHT 1864 + Dasatinib (first compound 0.4 µM) was determined as 0.34; with EHT 1864 + Dasatinib (first compound 1.265 µM) it was 0.334; with EHT 1864 + Dasatinib (first compound 4 µM) it was 0.396; with EHT 1864 + Decitabine (first compound 0.04 µM), 0.781; with EHT 1864 + Decitabine (first compound 0.1265 µM) it was 0.578; with EHT 1864 + Decitabine (first compound 0.4 µM), 0.574. Further, the relative viability was found to be 0.786 in the assay with EHT 1864 + Decitabine (first compound 1.265 µM) and 0.637 with EHT 1864 + Decitabine (first compound 4 µM).

As for Calu-6, the relative viability in the assay with EHT 1864 + Foretinib (first compound 0.04 µM) came to 0.932; in the assay with EHT 1864 + Foretinib (first compound 0.1265 µM) it was 0.853; in the assay with EHT 1864 + Foretinib (first compound 0.4 µM), 0.846; with EHT 1864 + Foretinib (first compound 1.265 µM) it was 0.913; with EHT 1864 + Foretinib (first compound 4 µM), 0.87.
